Experimental data taken from PubChem BioAssay AID624134 (Broad Institute, 2012).
Several values for one entry are separate records, joined by “and”; a condition that tells them apart may be missing. Identical values can stand only once. Records with an inconclusive call do not appear. Activity calls are given as the source filed them.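 The calls were made as follows: active = signal drop with fitted half-maximal concentration no higher than twice the top valid tested concentration; inconclusive = flat curve with 30 to 70% signal loss, or poor fit; inactive = the rest, including signal rises and flat curves within 30%.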

The molecules below were run on HepG2 viability, CellTiter-Glo ATP luminescence, 48 h (assay: HepG2 cell cytotoxicity, dose response, cytotoxicity control for Shn3 inhibitor project, CellTiter-Glo, cherry-picked (AID 624134)).

Compound	AC50
CC(=O)OC1C(=O)OCC23CCC4(C)OC4C2OC2CC(OC(=O)C=CC=CC(=O)OCCC1C)C3(C)C21CO1 (stereo not given)	> 70 µM (inactive)
CC(=O)OC[C@]12CCC(C)=C[C@H]1O[C@@H]1[C@H](O)[C@@H](OC(C)=O)[C@@]2(C)[C@]12CO2	> 70 µM (inactive)
CCN1CCN(Cc2ccc(NC(=O)c3cc(NC(=O)c4cc5cccc(OC)c5o4)cc(OC)c3)cc2C(F)(F)F)CC1	18.9 µM and 9.13 µM
C[C@H]1[C@@H](OS(=O)(=O)O)C[C@@H]2C[C@H]([C@@H](O)c3cc(=O)[nH]c(=O)[nH]3)NC3=NC[C@H]1N32	8.33 µM
CC(=O)OCC12CC(OC(=O)CC(C)C)C(C)=CC1OC1C(O)C(OC(C)=O)C2(C)C12CO2 (stereo not given)	> 70 µM (inactive)
